This note sets out measurements from article PMC11938873 (Science Progress, 2025).

For assay [1], the system named is IvAIS1. As to the kind of experiment: GC-MS product assay, isoeugenol formation. The format is biochemical, Illicium verum. The conditions noted are these: NADPH co-substrate; pH 7.0, 45 °C.
In assay [2] the test system is IvAIS1. As to the kind of experiment: GC-MS product assay, t-anol formation. The conditions noted are these: NADPH co-substrate; pH 7.0, 40 °C. The class given is biochemical, Illicium verum.

With `COc1cc(/C=C/COC(C)=O)ccc1O` [coniferyl acetate], in the assay with IvAIS1 [1], the Km came out at 438 ± 44.3 µM.

Consider `CC(=O)OC/C=C/c1ccc(O)cc1` [coumaryl acetate], for which, in the assay on IvAIS1 [2], the Km amounted to 480 ± 86.6 µM.
